Experimental data from US6982362B1, “α-tocopherol transport protein knockout animal” (priority 1999, dated 2006).

Assay: Plasma α-tocopherol levels in mice fed with α-tocopherol (HPLC)
Assay type: in vivo, mouse
Settings: fed α-tocopherol 82 μmol/kg from 4 weeks of age, time course FIG. 7
Description: Each of the homozygous α-TTP-deficient, heterozygous α-TTP-deficient and wild-type mice was fed with α-tocopherol at a concentration of 82 μmol/kg from 4 weeks of age. All mice were then assayed for their plasma α-tocopherol levels according to the method of Kim, H. S. et al. (Free Rad. Res. 28, 87–92, 1998). More specifically, 50 μl of mouse plasma collected using heparin was diluted with 950 Pl of PBS, mixed with 1 ml of 6% pyrogarol in EtOH, and then allowed to stand at 70° C. for 2 minutes. After addition of 60% KOH (0.2 ml), the mixture was saponified at 70° C. for 30 minutes, vortexed with 5 ml of n-hexane and 2.5 ml of H2O, and then centrifuged to collect the n-hexane layer (4 ml). The layer was evaporated and dissolved in […] of ethanol, followed by HPLC analysis. HPLC was performed under the following conditions: column: IRIKA RP18 (250×4 mm), mobile phase: MeOH/H2O/NaClO4 (1000/2/7, v/v/w), detection: IRIKA Amperometric E-520 detector. Tocol was used as an internal standard.

plasma α-tocopherol level as compared with the wild-type mice (heterozygous α-TTP-deficient mice): about one-half
plasma α-tocopherol level (homozygous α-TTP-deficient mice): under the detection limit
Structure (SMILES): Cc1c(C)c2c(c(C)c1O)CC[C@@](C)(CCC[C@H](C)CCC[C@H](C)CCCC(C)C)O2 [α-tocopherol]
